Reference: ChEMBL document CHEMBL3885881, “DrugMatrix”

Tests used:
[1] = species: Rattus norvegicus; assay: DrugMatrix - Regimen: Daily Repeat; type: toxicity, organism-based, Sprague-Dawley; parameters: regimen Daily Repeat, gender Male, age 6-8 weeks; conditions: in vivo, po, 1200 mg/kg, […], route oral GAVAGE, dose level High, time 14 day
[2] = species: Rattus norvegicus; type: toxicity, organism-based, Sprague-Dawley; conditions: in vivo, po, 24 h, route oral GAVAGE, time 1 day, […]; for MEAN CORPUSCULAR HEMOGLOBIN CONCENTRATION / MEAN CORPUSCULAR VOLUME / ABSOLUTE BASOPHIL / ABSOLUTE EOSINOPHIL / ABSOLUTE LYMPHOCYTE / ABSOLUTE MONOCYTE / BASOPHIL / EOSINOPHIL / ERYTHROCYTE COUNT / HEMATOCRIT / HEMOGLOBIN / LEUKOCYTE COUNT / LYMPHOCYTE / MEAN CORPUSCULAR HEMOGLOBIN / MONOCYTE / NEUTROPHIL / PLATELET COUNT: tissue Blood; for ALANINE AMINOTRANSFERASE / ALBUMIN / ALKALINE PHOSPHATASE / ASPARTATE AMINOTRANSFERASE / BLOOD UREA NITROGEN / CARBON DIOXIDE / CHLORIDE / CHOLESTEROL / CREATINE PHOSPHOKINASE / CREATININE / GLUCOSE / LACTATE DEHYDROGENASE / LIPASE / PHOSPHORUS / POTASSIUM / SODIUM / TOTAL BILIRUBIN / TOTAL PROTEIN / URIC ACID: tissue Plasma
Description: DrugMatrix - Regimen: Single

[3] = 0 mg/kg, vehicle control, dose level Control

Compound: CC[C@H](C)C(=O)O[C@H]1C[C@H](O)C=C2C=C[C@H](C)[C@H](CC[C@@H](O)C[C@@H](O)CC(=O)O)[C@H]21 [PRAVASTATIN]
- MONOCYTE ([1]; tissue Blood): 6.57%
- NEUTROPHIL ([1]; tissue Blood): 58.53%
- PLATELET COUNT ([1]; tissue Blood): 1135 x10E3/uL
- ALANINE AMINOTRANSFERASE ([1]; tissue Plasma): 669.33 u/L
- ALBUMIN ([1]; tissue Plasma): 3.17 G/DL
- ALKALINE PHOSPHATASE ([1]; tissue Plasma): 461 u/L
- ASPARTATE AMINOTRANSFERASE ([1]; tissue Plasma): 5256.67 u/L
- BLOOD UREA NITROGEN ([1]; tissue Plasma): 60.67 mg/dL
- CARBON DIOXIDE ([1]; tissue Plasma): 33.33 mmol/L
- CHLORIDE ([1]; tissue Plasma): 95.67 MEQ/L
- CHOLESTEROL ([1]; tissue Plasma): 47 mg/dL
- CREATINE PHOSPHOKINASE ([1]; tissue Plasma): 10626.67 u/L
- CREATININE ([1]; tissue Plasma): 0.97 mg/dL
- GLUCOSE ([1]; tissue Plasma): 113.67 mg/dL
- LACTATE DEHYDROGENASE ([1]; tissue Plasma): 1229.67 u/L
- LIPASE ([1]; tissue Plasma): 228.5 u/L
- PHOSPHORUS ([1]; tissue Plasma): 11.03 mg/dL
- POTASSIUM ([1]; tissue Plasma): 6.93 MEQ/L
- SODIUM ([1]; tissue Plasma): 141 MEQ/L
- TOTAL BILIRUBIN ([1]; tissue Plasma): 0.3 mg/dL
- TOTAL PROTEIN ([1]; tissue Plasma): 5.53 G/DL
- URIC ACID ([1]; tissue Plasma): 1.53 mg/dL
- MEAN CORPUSCULAR HEMOGLOBIN CONCENTRATION ([2]; 0 mg/kg, dose level Control): 30.5 G/DL
- MEAN CORPUSCULAR VOLUME ([2]; 0 mg/kg, dose level Control): 67.21 fL
- ABSOLUTE BASOPHIL [2, 3]: 50 cells/µL
- ABSOLUTE EOSINOPHIL [2, 3]: 32.5 cells/µL
- ABSOLUTE LYMPHOCYTE [2, 3]: 7980 cells/µL
- ABSOLUTE MONOCYTE [2, 3]: 170 cells/µL
- BASOPHIL [2, 3]: 0.58%
- EOSINOPHIL [2, 3]: 0.34%
- ERYTHROCYTE COUNT [2, 3]: 6.56 x10E6/uL
- HEMATOCRIT [2, 3]: 44.14%
- HEMOGLOBIN [2, 3]: 13.45 G/DL
- LEUKOCYTE COUNT [2, 3]: 9.51 x10E3/uL
- LYMPHOCYTE [2, 3]: 83.6%
- MEAN CORPUSCULAR HEMOGLOBIN [2, 3]: 20.5 pg
- MONOCYTE [2, 3]: 1.86%
- NEUTROPHIL [2, 3]: 12.7%
- PLATELET COUNT [2, 3]: 1240.38 x10E3/uL
- ALANINE AMINOTRANSFERASE [2, 3]: 47.12 u/L
- ALBUMIN [2, 3]: 3.59 G/DL
- ALKALINE PHOSPHATASE [2, 3]: 461.38 u/L
- ASPARTATE AMINOTRANSFERASE [2, 3]: 62.25 u/L
- BLOOD UREA NITROGEN [2, 3]: 12.63 mg/dL
- CARBON DIOXIDE [2, 3]: 39.5 mmol/L
- CHLORIDE [2, 3]: 105.38 MEQ/L
- CHOLESTEROL [2, 3]: 74.25 mg/dL
- CREATINE PHOSPHOKINASE [2, 3]: 282.88 u/L
- CREATININE [2, 3]: 0.61 mg/dL
- GLUCOSE [2, 3]: 176.25 mg/dL
- LACTATE DEHYDROGENASE [2, 3]: 190.25 u/L
- LIPASE [2, 3]: 28 u/L
- PHOSPHORUS [2, 3]: 12.68 mg/dL
- POTASSIUM [2, 3]: 6.6 MEQ/L
- SODIUM [2, 3]: 151.13 MEQ/L
- TOTAL BILIRUBIN [2, 3]: 0.34 mg/dL
- TOTAL PROTEIN [2, 3]: 6.09 G/DL
- URIC ACID [2, 3]: 1.06 mg/dL
- ABSOLUTE BASOPHIL ([2]; 1200 mg/kg, dose level High): 12.5 cells/µL
- ABSOLUTE EOSINOPHIL ([2]; 1200 mg/kg, dose level High): 41.3 cells/µL
- ABSOLUTE LYMPHOCYTE ([2]; 1200 mg/kg, dose level High): 7270 cells/µL
- ABSOLUTE MONOCYTE ([2]; 1200 mg/kg, dose level High): 270 cells/µL
- BASOPHIL ([2]; 1200 mg/kg, dose level High): 0.35%
- EOSINOPHIL ([2]; 1200 mg/kg, dose level High): 0.46%
- ERYTHROCYTE COUNT ([2]; 1200 mg/kg, dose level High): 6.38 x10E6/uL
- HEMATOCRIT ([2]; 1200 mg/kg, dose level High): 42.34%
- HEMOGLOBIN ([2]; 1200 mg/kg, dose level High): 12.95 G/DL
- LEUKOCYTE COUNT ([2]; 1200 mg/kg, dose level High): 9.2 x10E3/uL
- LYMPHOCYTE ([2]; 1200 mg/kg, dose level High): 78.89%
- MEAN CORPUSCULAR HEMOGLOBIN ([2]; 1200 mg/kg, dose level High): 20.29 pg
- MEAN CORPUSCULAR HEMOGLOBIN CONCENTRATION ([2]; 1200 mg/kg, dose level High): 30.55 G/DL
- MEAN CORPUSCULAR VOLUME ([2]; 1200 mg/kg, dose level High): 66.41 fL
- MONOCYTE ([2]; 1200 mg/kg, dose level High): 2.9%
- NEUTROPHIL ([2]; 1200 mg/kg, dose level High): 16.21%
- PLATELET COUNT ([2]; 1200 mg/kg, dose level High): 1234.38 x10E3/uL
- ALANINE AMINOTRANSFERASE ([2]; 1200 mg/kg, dose level High): 73.25 u/L
- ALBUMIN ([2]; 1200 mg/kg, dose level High): 3.64 G/DL
- ALKALINE PHOSPHATASE ([2]; 1200 mg/kg, dose level High): 563.12 u/L
- ASPARTATE AMINOTRANSFERASE ([2]; 1200 mg/kg, dose level High): 74.62 u/L
- BLOOD UREA NITROGEN ([2]; 1200 mg/kg, dose level High): 12.25 mg/dL
- CARBON DIOXIDE ([2]; 1200 mg/kg, dose level High): 36.62 mmol/L
- CHLORIDE ([2]; 1200 mg/kg, dose level High): 108 MEQ/L
- CHOLESTEROL ([2]; 1200 mg/kg, dose level High): 74.87 mg/dL
- CREATINE PHOSPHOKINASE ([2]; 1200 mg/kg, dose level High): 344.5 u/L
- CREATININE ([2]; 1200 mg/kg, dose level High): 0.67 mg/dL
- GLUCOSE ([2]; 1200 mg/kg, dose level High): 193.13 mg/dL
- LACTATE DEHYDROGENASE ([2]; 1200 mg/kg, dose level High): 126.88 u/L
- LIPASE ([2]; 1200 mg/kg, dose level High): 34.88 u/L
- PHOSPHORUS ([2]; 1200 mg/kg, dose level High): 12.5 mg/dL
- POTASSIUM ([2]; 1200 mg/kg, dose level High): 6.55 MEQ/L
- SODIUM ([2]; 1200 mg/kg, dose level High): 153.75 MEQ/L
- TOTAL BILIRUBIN ([2]; 1200 mg/kg, dose level High): 0.27 mg/dL
- TOTAL PROTEIN ([2]; 1200 mg/kg, dose level High): 6.12 G/DL
- URIC ACID ([2]; 1200 mg/kg, dose level High): 1.09 mg/dL
